Experimental data taken from patent US8809343B2, “Pyrimidine derivative, preparation method and use thereof” (Fudan University, priority 2008, dated 2014).
pEC50: −log10 of the molar value. Read-outs that look alike come from different tables or passages of the source.

Columns and labels:
Assay type in all cases: cell-based
[1] = Cell toxicity in uninfected MT-4 cells (MTT method); details: human
Protocol: (§1) Anti-virus activity of cells in vitro was determined by Rega Institute for Medical of […] Katholleke University, consisting mainly: inhibitory activity towards HIV-infected MT-4 cells and cell toxicity. The method is described below: exert the compound on the HIV-infected ME-4 cells, and determine the protection of the drug on the cell lesions induced by HIV at varied HIV-infection intervals, calculate the half effective concentration IC50, the required concentration that protect 50% of cells from cell lesions induced by HIV. Toxicity determination is carried out in parallel with anti-HIV activity experiments, also in the cultured MT-4 cells, determine the CC50, the concentration that leads 50% of uninfected cells to cell lesions, and calculate the selectivity index SI=CC50/IC50 with the MTT method.
(§2) The detailed operation is as follows: the compound is dissolved with DMSO or water and diluted with phosphate buffer saline, 3×10^5 MT-4 cells are cultured with 100 μL various concentrations of compounds for 1 h, then 100 μL suitable virus dilution is added to the compound, and the cells are cultured at 37° C. for 1 h. After being washed for 3 times, the cells are suspended again in the culture media containing or not compounds individually. Subsequently, the cells are transferred to the atmosphere containing 5% CO2 and cultured for 7 days at 37° C., and culture media containing or not compounds are used to replace or supplement the culture solution on the third day after infection. Kinds of culture conditions should be duplicated. The cell lesions caused by virus are monitored with reverse light microscopy everyday. Typically, the virus dilution applied in the present experiments generally cause cell lesion on the fifth day after infection. […] It should be emphasized that, when the compound is poorly water-soluble and can only be dissolved in DMSO, the ratio of DMSO to water is generally below 10% (the final concentration of DMSO in MT-4 cell culture media is smaller than 2%). Because DMSO can influence the anti-virus activity of the tested compounds, blank tests on the solution containing the same concentration of DMSO should be conducted in parallel. Additionally, the final concentration of DMSO is far below the concentration required to influence the replication of HIV-1 in T cells.

HIV-1 IIIB strain = experiment: Anti-HIV activity: protection of HIV-infected MT-4 cells from virus-induced cell lesions
Protocol: as §1
Anti-HIV activity of various compounds is monitored by the inhibitory efficiency of drugs on the cell lesions induced by HIV. Carry out cell culture with MT-4 cells. The adopted virus strains are HIV-1 IIIB strain and drug-resistant viral strain of […].
as §2

MT-4 cells = experiment: Cell toxicity in uninfected MT-4 cells (MTT method); details: Table 3
Protocol: as §1, §2

[2] = MT-4 cells, Table 3, read-out: EC50 HIV-1(IIIB)
[3] = Human immunodeficiency virus 1, IIIB, MT4, MT-4 cells, Table 1, read-out: EC50 HIV-1(IIIB)
[4] = Human immunodeficiency virus 1, IIIB, MT4, MT-4 cells, Table 2, read-out: EC50 WT(IIIB)

| Compound | CC50 (MT-4 cells) [nM] | pEC50 (HIV-1 IIIB strain; [2]) | further results |
| --- | --- | --- | --- |
| Cc1cc(Br)cc(Br)c1Oc1nc(Nc2ccc(C#N)cc2)nc2ccccc12 [Compound 32] | – | – | CC50 at 7 days ([1]; uninfected MT-4 cells, Table 3): 157000 nM; SI (Selectivity index, the ratio of CC50/IC50) (HIV-1 IIIB strain; HIV-1 IIIB, MT-4 cells, Table 3): 8917; pEC50 (HIV-1 IIIB strain; Human immunodeficiency virus 1, IIIB, MT4, read-out: EC50 HIV-1(IIIB)): 7.75 |
| Cc1cc(C#N)ccc1Oc1nc(Nc2ccc(C#N)cc2)nc2ccccc12 [Compound 33] | > 333000 | 7.55 | – |
| N#Cc1ccc(Nc2nc(Oc3c(Br)cc(Br)cc3Br)c3ccccc3n2)cc1 [Compound 34] | 71000 | 7.64 | – |
| Cc1cc(Br)c(Oc2nc(Nc3ccc(C#N)cc3)nc3ccccc23)c(Br)c1 [Compound 35] | 23400 | 7.82 | – |
| Cc1cc(C)c(Oc2nc(Nc3ccc(C#N)cc3)nc3ccccc23)c(C)c1 [Compound 36] | > 34100 | 7.64 | – |
| N#Cc1ccc(Nc2nc(Oc3ccc(Cl)cc3Cl)c3ccccc3n2)cc1 [Compound 37] | 114000 | 7.55 | – |
| N#Cc1ccc(Nc2nc(Oc3ccc(F)cc3)c3ccccc3n2)cc1 [Compound 38] | 310000 | 6.81 | – |
| N#Cc1ccc(Nc2nc(Oc3ccccc3Cl)c3ccccc3n2)cc1 [Compound 39] | 343000 | 7.24 | – |
| N#Cc1ccc(Nc2nc(Oc3ccc(Cl)cc3)c3ccccc3n2)cc1 [Compound 40] | > 396000 | 6.78 | – |
| COc1cc(C#N)cc(OC)c1Oc1nc(Nc2ccc(C#N)cc2)nc2ccccc12 [Compound 41] | > 93100 | 8.66 | – |
| N#Cc1ccc(Nc2nc(Oc3c(Cl)cc(Cl)cc3Cl)c3ccccc3n2)cc1 [Compound 42] | 244000 | 8.46 | – |
| Cc1cccc(C)c1Oc1nc(Nc2ccc(C#N)cc2)nc2ccccc12 [Compound 43] | > 640000 | 7.34 | – |
| N#Cc1ccc(Nc2nc(Sc3ccccc3)c3ccccc3n2)cc1 [Compound 44] | 494000 | 6.12 | – |
| Cc1cc(C#N)cc(C)c1Oc1nc(Nc2ccc(C#N)cc2)nc2ccccc12 [Compound 45] | > 172000 | 8.44 | – |
| CCOc1cc(C#N)cc(OCC)c1Oc1nc(Nc2ccc(C#N)cc2)nc2ccccc12 [Compound 46] | > 99300 | 8.54 | – |
| CCCOc1cc(C#N)cc(OCC)c1Oc1nc(Nc2ccc(C#N)cc2)nc2ccccc12 [Compound 47] | > 66700 | 8.49 | – |
| COc1cc(C#N)cc(Cl)c1Oc1nc(Nc2ccc(C#N)cc2)nc2ccccc12 [Compound 48] | > 173000 | 8.25 | – |
| CCOc1cc(C#N)cc(Cl)c1Oc1nc(Nc2ccc(C#N)cc2)nc2ccccc12 [Compound 49] | > 594000 | 8.23 | – |
| COc1cc(C#N)cc(OC(C)C)c1Oc1nc(Nc2ccc(C#N)cc2)nc2ccccc12 [Compound 50] | > 65800 | 8.17 | – |
| N#Cc1ccc(Nc2nc(S(=O)(=O)c3ccccc3)c3ccccc3n2)cc1 [Compound 51] | > 215000 | 6.23 | – |
| CCOc1cc(C#N)cc(OC)c1Oc1nc(Nc2ccc(C#N)cc2)nc2ccccc12 [Compound 52] | > 130000 | 8.59 | – |
| Cc1cc(C)c(Oc2nc(Nc3ccc(C#N)cc3)nc3ccc(Cl)cc23)c(C)c1 [Compound 54] | 147000 | 8.74 | – |
| Cc1cn([C@H]2C[C@H](N=[N+]=[N-])[C@@H](CO)O2)c(=O)[nH]c1=O [DDN/AZT, reference compound] | > 93500 | 8.29 | – |
| CC(C)Nc1cccnc1N1CCN(C(=O)c2cc3cc(NS(C)(=O)=O)ccc3[nH]2)CC1 [DLV, Delavirdine, reference compound] | – | – | CC50 at 7 days ([1]; uninfected MT-4 cells, Table 1): 860 nM; SI (Selectivity index, the ratio of CC50/IC50) (HIV-1 IIIB strain; HIV-1 IIIB, MT-4 cells, Table 1): 12; pEC50 (HIV-1 IIIB strain; [3]): 7.14; pEC50 (HIV-1 IIIB strain; [4]): 7.14; SI (Selectivity index, the ratio of CC50/IC50) (HIV-1 IIIB strain; WT(IIIB), Table 2): 12 |
| Cc1ccnc2c1NC(=O)c1cccnc1N2C1CC1 [NVP, nevirapine, reference compound] | – | – | CC50 at 7 days ([1]; Table 1): 5410 nM; CC50 at 7 days ([1]; Table 3): > 15000 nM; pEC50 (HIV-1 IIIB strain; [3]): 7.12; pEC50 (HIV-1 IIIB strain; [4]): 7.12 |
